# In US20230212129A1, “QUINAZOLINE DERIVATIVES USEFUL AS SELECTIVE HDAC6 INHIBITORS” (AnnJi Pharmaceutical Co., Ltd., priority 2020, published 2023):
# Assays:
# [1] = system: paclitaxel-induced peripheral neuropathy; assay: Paclitaxel-induced peripheral neuropathy, Von Frey test; type: in vivo, Sprague-Dawley (SD) rats
# Protocol: Male Sprague-Dawley (SD) rats, weighing 320±30 grams, were given paclitaxel intraperitoneally at the dose of 6 mg/kg for 5 consecutive days with a total cumulative dose of 30 mg/kg to induce chemotherapy-induced peripheral neuropathy.
# Compound 2 or vehicle was administered orally once daily for 2 weeks during the weekdays (Days 8 to 12 and 15-19). Mechanical allodynia is assessed by the manual Von Frey test once per week. The animals are given 20 to 30 minutes to acclimatize prior to the testing. The paw is pressed with a series of 8 manual Von Frey monofilaments with logarithmically incremental stiffness [3.61 (0.4 g), 3.84 (0.6 g), 4.08 (1.0 g), 4.31 (2.0 g), 4.56 (4.0 g), 4.93 (8.0 g), 5.18 (15.0 g) and (26.0 g)]. The manual Von Frey monofilament was applied perpendicularly from underneath the mesh floor to the central plantar surface with sufficient force to cause a slight buckling against the paw, and held for approximately 6-8 seconds. A positive response was noted if the paw is sharply withdrawn; ambulation is considered an ambiguous response, and in such cases, the stimulus is reapplied. The 50% paw withdrawal threshold (PWT) to a static mechanical stimulus was assessed using Von Frey filament and up-and-down method.
# Von Frey data were presented as mean±SEM (Standard Error of the Mean). Treatment groups were compared to the paclitaxel control using Student's T-test. A p value <0.05 is considered to represent a significant difference.
# IL-6 = IL-6 in bronchoalveolar lavage fluid, bleomycin model; type: in vivo, mice; conditions: prevention model, 30 mg/kg oral, 21 days; FIG. 6
# Protocol: The activities of compounds COMPOUND 2 and COMPOUND 33 in preventing and/or treating pulmonary fibrosis were examined using a bleomycin-induced pulmonary fibrosis model, a model that involves deactivated bleomycin hydrolase, elevated oxidative stress, and increased inflammatory cytokines. In the prevention model, mice were administered bleomycin intratracheally an hour in prior to the first oral administration of 30 mg/kg testing compounds. The treatment continued for 21 consecutive days, and mice were sacrificed to examine histological changes of lung tissues were analyzed by H&E staining to evaluate the degree of lung fibrosis.
# HDAC1 = target: T1, HDAC1 (Homo sapiens, UniProt Q13547); assay: HDAC1 activity, acetylated-AMC-labeled peptide substrate; type: biochemical
# T1 construct: GST (C); host or cells: baculovirus expression system, Sf9 insect cells (SP9 [sic])
# T1 sequence (Q13547 whole entry): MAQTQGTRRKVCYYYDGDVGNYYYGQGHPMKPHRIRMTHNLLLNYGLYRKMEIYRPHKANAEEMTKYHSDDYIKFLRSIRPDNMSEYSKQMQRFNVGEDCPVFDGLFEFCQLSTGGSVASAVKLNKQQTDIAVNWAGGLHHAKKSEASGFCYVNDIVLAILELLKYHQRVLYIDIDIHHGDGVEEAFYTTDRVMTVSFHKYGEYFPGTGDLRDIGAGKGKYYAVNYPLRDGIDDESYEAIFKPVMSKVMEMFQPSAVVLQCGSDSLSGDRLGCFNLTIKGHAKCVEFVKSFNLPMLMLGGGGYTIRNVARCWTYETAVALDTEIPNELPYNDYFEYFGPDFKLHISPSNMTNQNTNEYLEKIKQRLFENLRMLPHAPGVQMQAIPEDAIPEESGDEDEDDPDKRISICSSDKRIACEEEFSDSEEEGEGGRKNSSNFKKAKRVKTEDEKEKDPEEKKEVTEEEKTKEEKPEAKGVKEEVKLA
# Protocol: The activities of HDAC 1 and 6 were measured by using an acetylated-AMC-labeled peptide substrate, a fluorogenic peptide from p53 residues 379-382 (RHIKKAc). The proteins involved in the assay are as the followings (1) Human HIDAC1 (Genflank Accession No. NM_004964): Full length with C-terminal GST tag, MW=79.9 kDa, expressed by baculovirus expression system in SP9 cells; and (2) Human HIDAC6 (Genflank Accession No. BC069243): Full length with N-terminal GST tag, MW=159 kDa, expressed by baculovirus expression system in Sf9 cells.
# Rat DRG cells = assay: Cisplatin-induced neurite degeneration in DRG cells; type: cell-based; conditions: 0.3 μM with 0.5 mM cisplatin, 48 hours; p<0.05; FIG. 3
# Protocol: Rat DRG cells were used to investigate the protective effect of HDAC6 inhibitors. DRG cells were treated with 0.5 mM of cisplatin with or without 0.3 μM of COMPOUND 2 or ACY1215 for 48 hours. The neurite area and the number of blebs (cell apoptosis) per image were calculated and their ratio values among the tested groups were compared and shown in FIG. 3.
# [2] = system: acetylated α-tubulin (Ac-α-tub); assay: Western blot of acetylated α-tubulin in primary DRG cells; type: cell-based, C57BL/6J mice; conditions: 48 hours of treatment, FIG. 2
# Protocol: To investigate the effect of HDAC6 inhibitors in neuron protection and neuron regeneration, the recovery of dorsal root ganglion (DRG) cells post-paclitaxel injury was tested. Dorsal root ganglion was extracted from 7 week-old female C57BL/6J mice and incubated with HDAC6 inhibitors (compounds COMPOUND 33, COMPOUND 34, or COMPOUND 2) at the concentrations of 0.1 μM and 1 μM, or 100 ng/ml of BDNF, a neuronal growth factor (positive control), for 24 hours prior to a 24-hour incubation of 0.1 μM paclitaxel.
# [3] = system: cisplatin-induced neuropathy; assay: Cisplatin-induced neuropathy, von Frey paw-withdrawal murine model; type: in vivo, Balb/c mice; conditions: oral once daily Day 16 to 29 (pregabalin 15 mg/kg one hour prior to test); vs cisplatin control; FIG. 4
# Protocol: To understand whether COMPOUND 2 exerts neuron protective activities in cisplatin-induced neuropathy, a paw-withdrawal murine model is deployed. The 50% paw withdrawal threshold (PWT) to a static mechanical stimulus was assessed using von Frey filament and up-and-down method following the procedure described by Chaplan (1994). Mechanical allodynia, a painful sensation caused by innocuous stimuli like light touch, was assessed by the manual von Frey test once per week (on day 7, 14, 21, 28, […], and 42). The animals indicated sensation by pulling back its paw. The minimum force leading to withdrawal of the paw was regarded as the reflex threshold.
# Balb/c mice weighing about 25±2 gram were given cisplatin intraperitoneally at the dose of 1.5 mg/kg for 5 consecutive days (cumulative dose of 7.5 mg/kg), followed by 5 days of recovery. The cisplatin administration cycle was repeated once more to reach a cumulative dose of 15 mg/kg to induce neuropathy. Test compounds, COMPOUND 2 and ACY1215, were orally administered once daily for 2 weeks (except for the weekends) from Day 16 to 29. Pregabalin, a drug known to provide transient pain relief, was administered at a dose of 15 mg/kg prior to each von Frey stimulus test to serve as the positive control.
smiles,measurement,setting,value
"CCc1nc2cc(F)c(/C=C/C(=O)NO)cc2c(=O)n1-c1c(C)cccc1C [Compound 2, (E)-3-(3-(2,6-dimethylphenyl)-2-ethyl-7-fluoro-4-oxo-3,4-dihydroquinazolin-6-yl)-N-hydroxyacrylamide]",duration of effect after the dosing was stopped,[1]; 15 and 30 mg/kg,≥ 14 days
same,sensitivity to the mechanical stimulation,"[1]; 15 and 30 mg/kg, starting from study Day 14",significantly reduced the sensitivity
same,pain-relief after dosing was stopped,[1]; FIG. 7,maintained for at least two weeks after dosing was stopped
same,threshold of mean withdrawal force,"[1]; vs vehicle, from study Day 14, oral once daily Days 8 to 12 and 15-19",significant increase in the threshold of mean withdrawal force
same,IL-6 level in the BALF,IL-6,suppressed IL-6 level in the BALF
same,IC50,HDAC1,5.17 µM
same,neurite degeneration (neurite area and number of blebs ratio),Rat DRG cells,significantly lesser degree of neurite degeneration
same,tubulin hyperacetylation,[2],tubulin hyperacetylation
same,mean withdrawal threshold (50% PWT),[3],significantly increased the mean withdrawal threshold
